Reference: patent US5585511A, “Platinum complex and malignant tumor treating drug containing the same” (SS Pharmaceutical Co., Ltd., priority 1994, dated 1996)

How the values were obtained:
[1] = test system: murine L1210 leukemia cells; assay: Antitumor effect on murine L1210 leukemia cell (intraperitoneally inoculated mice, increase in life-span); assay type: in vivo, murine; male CDF1 mice; conditions: for ILS50 (a dose which shows 50% of the ILS value by 5 administrations): from linear regression line; for dose corresponding to ILSmax: dose shown in parenthesis; for ILSmax (maximum ILS value within the set doses): male CDF1 mice, observed for 30 days
Source text: (§1) Murine L1210 leukemia cells (1×10^5 cells) were inoculated peritoneally into six-week-old male CDF1 mice.
(§2) T: mean survival days of drug-treated group
(§3) C: mean survival days of untreated group
(§4) In the table, ILSmax means the maximum ILS value (%) within the set doses, and its corresponding dose (mg/kg) is shown in parenthesis.

[2] = test system: cisplatin-resistant murine L1210 leukemia cell (L1210/DDP); assay: Antitumor effect on cisplatin-resistant murine L1210 leukemia cell (L1210/DDP), increase in life-span; assay type: in vivo, murine; male CDF1 mice; conditions: for ILS50 (a dose which shows 50% of the ILS value by 5 administrations): ND: not detectable; for TI (therapeutic index LD50/ILS50): LD50/ILS50, ND: not detectable; for dose corresponding to ILSmax: dose(s) shown in parenthesis; for ILSmax (maximum ILS value within the set doses): male CDF1 mice, observed for 30 days
Source text: as §1, §2, §3, §4
Antitumor effect on cisplatin-resistant murine L1210 leukemia cell:
The above test of the antitumor effect on murine leukemia cells was repeated except that cisplatin-resistant murine L1210 leukemia cell (L1210/DDP) was used instead of murine L1210 leukemia cell, with the results shown in Table 2.

male CDF1 mice = assay: 50% lethal dose by single intraperitoneal administration; assay type: in vivo
Source text: as §4

`O=C([O][Pt]1([Cl])[NH]C2CCCCC2[NH]1)C1CCCC1` (stereo not drawn) [Compound 16, chloro(cyclopentanecarboxylato)(trans-1-1,2-diaminocyclohexane)platinum(II)] was tested, and the “ILS50 (a dose which shows 50% of the ILS value by 5 administrations)” value [1] was 5.6 mg/kg, the “TI (therapeutic index LD50/ILS50)” value [1] was 31.6 and the “dose corresponding to ILSmax” value [1] was 32 mg/kg. The “ILSmax (maximum ILS value within the set doses)” value [1] was greater than 221.3%, the “ILS50 (a dose which shows 50% of the ILS value by 5 administrations)” value [2] was less than 4.0 mg/kg and the “TI (therapeutic index LD50/ILS50)” value [2] was greater than 44.2. For the same compound, the “dose corresponding to ILSmax” value [2] was 4,8 mg/kg, the “ILSmax (maximum ILS value within the set doses)” value [2] was greater than 194.1% and the LD50 (male CDF1 mice) was 176.8 mg/kg.

For “chloro(propionato)(trans-1-1,2-diaminocyclohexane)platinum(II) [Compound 14]”, the “ILS50 (a dose which shows 50% of the ILS value by 5 administrations)” value [1] was 1.0 mg/kg, the “TI (therapeutic index LD50/ILS50)” value [1] was 44.3 and the “dose corresponding to ILSmax” value [1] was 8 mg/kg. The “ILSmax (maximum ILS value within the set doses)” value [1] was 146.3%, the “ILS50 (a dose which shows 50% of the ILS value by 5 administrations)” value [2] was less than 1.0 mg/kg and the “TI (therapeutic index LD50/ILS50)” value [2] was greater than 44.3. For the same compound, the “ILSmax (maximum ILS value within the set doses)” value [2] was greater than 194.1% and the LD50 (male CDF1 mice) was 44.3 mg/kg.

In the case of “chloro (cyclopropanecarboxylato) (trans-1-1,2-diaminocyclohexane)platinum(II) [Compound 15]”, the “ILS50 (a dose which shows 50% of the ILS value by 5 administrations)” value [1] is reported as 1.2 mg/kg, the “TI (therapeutic index LD50/ILS50)” value [1] is reported as 26.1 and the “dose corresponding to ILSmax” value [1] is reported as 8 mg/kg. The “ILSmax (maximum ILS value within the set doses)” value [1] was greater than 166.3%, the “ILS50 (a dose which shows 50% of the ILS value by 5 administrations)” value [2] was less than 1.0 mg/kg and the “TI (therapeutic index LD50/ILS50)” value [2] was greater than 31.3. For the same compound, the “dose corresponding to ILSmax” value [2] was 1,2 mg/kg, the “ILSmax (maximum ILS value within the set doses)” value [2] was greater than 194.1% and the LD50 (male CDF1 mice) was 31.3 mg/kg.

In the case of `N.N.[Cl][Pt][Cl]` [Cisplatin, cisplatin, reference compound], the “ILS50 (a dose which shows 50% of the ILS value by 5 administrations)” value [1] is reported as 1.3 mg/kg, the “dose corresponding to ILSmax” value [1] is reported as 4 mg/kg and the “ILSmax (maximum ILS value within the set doses)” value [1] is reported as 97.5%. For the same compound, the “dose corresponding to ILSmax” value [2] was 4 mg/kg and the “ILSmax (maximum ILS value within the set doses)” value [2] was 1.0%.

For “chloro(1-lactato)(trans-1-1,2-diaminocyclohexane)platinum(II) [Compound 17]”, the “ILS50 (a dose which shows 50% of the ILS value by 5 administrations)” value [1] was less than 1.0 mg/kg, the “TI (therapeutic index LD50/ILS50)” value [1] was greater than 44.3 and the “dose corresponding to ILSmax” value [1] was 8 mg/kg. The “ILSmax (maximum ILS value within the set doses)” value [1] was greater than 190.0%, the “ILS50 (a dose which shows 50% of the ILS value by 5 administrations)” value [2] was less than 1.0 mg/kg and the “TI (therapeutic index LD50/ILS50)” value [2] was greater than 44.3. For the same compound, the “dose corresponding to ILSmax” value [2] was 1,2 mg/kg, the “ILSmax (maximum ILS value within the set doses)” value [2] was greater than 194.1% and the LD50 (male CDF1 mice) was 44.3 mg/kg.
